Measurements from the NIST ThermoML archive (doi:10.1016/j.fluid.2011.05.017).

Assay: wn = mass fraction of the nth substance listed
Settings: 101 kPa, Liquid; for viscosity: Capillary tube (Ostwald / Ubbelohde) method; for mass density: Vibrating tube method

CCC(C)O (stereo not drawn) [butan-2-ol] + O
Settings	mass density, 298.15 K [kg/m3]	mass density, 303.15 K [kg/m3]	mass density, 308.15 K [kg/m3]	viscosity, 298.15 K [mPa·s]	viscosity, 303.15 K [mPa·s]	viscosity, 308.15 K [mPa·s]
w1 = 0.7	863.8	859.6	855.1	3.342	2.795	2.377
w1 = 0.8	843.6	839.2	834.8	3.098	2.608	2.216
w1 = 0.9	822.8	818.8	813.5	2.812	2.375	2.029
